Reference: patent publication US11051515B2, “3-acyl-benzamides and their use as herbicides” (Bayer Aktiengesellschaft, priority 2017, dated 2021)

Experiments:
[1] = tested on: ECHCG; experiment: Pre-emergence action against ECHCG; assay type: in vivo, Echinochloa crus-galli
How it was run: (§1)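 Seeds sown in sandy loam in wood-fiber pots and covered with soil. Greenhouse growth; visual damage scored after 3 weeks versus untreated controls (100% = dead, 0% = like control).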

[2] = tested on: MATIN; experiment: Post-emergence action against MATIN; assay type: in vivo, Matricaria inodora
How it was run: (§2)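 Post-emergence foliar spray on greenhouse plants at the one-leaf stage, using wettable-powder or emulsion-concentrate formulations in water (600 to […], plus 0.2% wetting agent). Damage scored by eye roughly 3 weeks later against untreated plants: 0% = like control, 100% = dead.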

[3] = tested on: AVEFA; experiment: Pre-emergence action against AVEFA; assay type: in vivo, Avena fatua; conditions: dosage 320 g/ha, scored visually after 3 weeks vs untreated controls
How it was run: as §1

[4] = tested on: CYPES; experiment: Post-emergence action against CYPES; assay type: in vivo, Cyperus esculentus; conditions: post-emergence, dosage 80 g/ha, visual assessment about 3 weeks after treatment vs untreated controls
How it was run: as §2

[5] = tested on: CYPES; experiment: Pre-emergence action against CYPES; assay type: in vivo, Cyperus esculentus; conditions: pre-emergence, dosage 320 g/ha, scored visually after 3 weeks vs untreated controls
How it was run: as §1

[6] = tested on: SETVI; experiment: Pre-emergence action against SETVI; assay type: in vivo, Setaria viridis; conditions: pre-emergence, dosage 320 g/ha, scored visually after 3 weeks vs untreated controls
How it was run: as §1

[7] = tested on: SETVI; experiment: Post-emergence action against SETVI; assay type: in vivo, Setaria viridis; conditions: post-emergence, dosage 80 g/ha, visual assessment about 3 weeks after treatment vs untreated controls
How it was run: as §2

[8] = tested on: ALOMY; experiment: Post-emergence action against ALOMY; assay type: in vivo, Alopecurus myosuroides; conditions: Dosage 80 g/ha, post-emergence
Procedure: (§3) Seeds of monocotyledonous and dicotyledonous weed and crop plants are laid out in sandy loam soil in wood-fiber pots, covered with soil and cultivated in a greenhouse under good growth conditions. 2 to 3 weeks after sowing, the test plants are treated at the one-leaf stage. The compounds of the invention, formulated in the form of wettable powders (WP) or as emulsion concentrates (EC), are then sprayed onto the green parts of the plants in the form of an aqueous suspension or emulsion at a water application rate equating to […], with addition of 0.2% wetting agent. After the test plants have been left to stand in the greenhouse under optimal growth conditions for about 3 weeks, the action of the preparations is assessed visually in comparison to untreated controls (herbicidal action in percent (%): 100% activity=the plants have died, 0% activity=like control plants). […] At the same time, inventive compounds leave Gramineae crops such as barley, wheat, rye, millet/Sorghum, corn or rice virtually undamaged when applied post-emergence, even at high active ingredient dosages. In addition, some substances are also harmless to dicotyledonous crops such as soya, cotton, oilseed rape, sugar beet or potatoes. Some of the compounds according to the invention have high selectivity and are therefore suitable for controlling unwanted vegetation in agricultural crops by the post-emergence method. The data of Tables B18 to B34 below illustrate, in an exemplary manner, the […] herbicidal action of the compounds according to the invention, the herbicidal activity being stated in percent.

[9] = tested on: AMARE; experiment: Pre-emergence action against AMARE; assay type: in vivo, Amaranthus retroflexus
How it was run: as §1

[10] = tested on: VERPE; experiment: Pre-emergence action against VERPE; assay type: in vivo, Veronica persica
How it was run: as §1

[11] = tested on: ABUTH; experiment: Pre-emergence action against ABUTH; assay type: in vivo, Abutilon theophrasti; conditions: pre-emergence, dosage 320 g/ha, scored visually after 3 weeks vs untreated controls
How it was run: as §1

[12] = tested on: AVEFA; experiment: Post-emergence action against AVEFA; assay type: in vivo, Avena fatua; conditions: post-emergence, dosage 80 g/ha, visual assessment about 3 weeks after treatment vs untreated controls
Procedure: as §3

[13] = tested on: STEME; experiment: Post-emergence action against STEME; assay type: in vivo, Stellaria media; conditions: post-emergence, dosage 80 g/ha
How it was run: as §2

[14] = tested on: VERPE; experiment: Post-emergence action against VERPE; assay type: in vivo, Veronica persica; conditions: dosage 80 g/ha
How it was run: as §2

[15] = tested on: VIOTR; experiment: Pre-emergence action against VIOTR; assay type: in vivo, Viola tricolor; conditions: for Herbicidal efficacy against VIOTR: 20 g of a.i./ha
How it was run: as §1

[16] = tested on: ECHCG; experiment: Post-emergence action against ECHCG; assay type: in vivo, Echinochloa crus-galli; conditions: post-emergence, dosage 80 g/ha, visual assessment about 3 weeks after treatment vs untreated controls
How it was run: as §2

[17] = tested on: VIOTR; experiment: Post-emergence action against VIOTR; assay type: in vivo, Viola tricolor
How it was run: as §2

[18] = tested on: STEME; experiment: Pre-emergence action against STEME; assay type: in vivo, Stellaria media
How it was run: as §1

[19] = tested on: POLCO; experiment: Post-emergence action against POLCO; assay type: in vivo, Polygonum convolvulus; conditions: post-emergence, dosage 80 g/ha
How it was run: as §2

[20] = tested on: PHBPU; experiment: Post-emergence action against PHBPU; assay type: in vivo, Pharbitis purpurea; conditions: post-emergence, dosage 80 g/ha
How it was run: as §2

[21] = tested on: ABUTH; experiment: Post-emergence action against ABUTH; assay type: in vivo, Abutilon theophrasti; conditions: post-emergence, dosage 80 g/ha, visual assessment about 3 weeks after treatment vs untreated controls
How it was run: as §2

[22] = tested on: ALOMY; experiment: Pre-emergence action against ALOMY; assay type: in vivo, Alopecurus myosuroides; conditions: dosage 320 g/ha; pre-emergence; scored visually after 3 weeks vs untreated controls; 100% = plants have died, 0% = like control plants
How it was run: as §1

[23] = tested on: MATIN; experiment: Pre-emergence action against MATIN; assay type: in vivo, Matricaria inodora; conditions: for Herbicidal efficacy against MATIN: 20 g of a.i./ha
How it was run: as §1

[24] = tested on: AMARE; experiment: Post-emergence action against AMARE; assay type: in vivo, Amaranthus retroflexus; conditions: post-emergence, dosage 80 g/ha, visual assessment about 3 weeks after treatment vs untreated controls
How it was run: as §2

[25] = tested on: POLCO; experiment: Pre-emergence action against POLCO; assay type: in vivo, Polygonum convolvulus; conditions: Dosage 320 g/ha, pre-emergence
How it was run: as §1

[26] = tested on: PHBPU; experiment: Pre-emergence action against PHBPU; assay type: in vivo, Pharbitis purpurea; conditions: Dosage 320 g/ha, pre-emergence
How it was run: as §1

[27] = pre-emergence, dosage 320 g/ha, scored visually after 3 weeks vs untreated controls
[28] = post-emergence, dosage 80 g/ha, visual assessment about 3 weeks after treatment vs untreated controls
[29] = Table V8, pre-emergence, 20 g of a.i./ha
[30] = Table V17, post-emergence, 5 g of a.i./ha

CCCn1nnnc1NC(=O)c1ccc(C(F)(F)F)c(C(=O)C2CC2)c1C [3-18]
100%: Pre-emergence action against ECHCG (herbicidal activity) [1, 27] | SETVI (Table B8, pre-emergence herbicidal activity) [6] | Post-emergence action against SETVI (herbicidal action in percent) [7] | Pre-emergence action against AMARE (herbicidal activity) [9, 27] | Pre-emergence action against ABUTH (herbicidal activity) [11] | Pre-emergence action against VIOTR ([15]; Dosage 320 g/ha, pre-emergence) | Pre-emergence action against STEME ([18]; Dosage 320 g/ha, pre-emergence) | Pre-emergence action against MATIN ([23]; Dosage 320 g/ha, pre-emergence)
90%: Post-emergence action against MATIN (herbicidal action in percent) [2, 28] | Post-emergence action against CYPES (herbicidal action in percent) [4] | Pre-emergence action against CYPES (herbicidal activity) [5] | Pre-emergence action against VERPE ([10]; Dosage 320 g/ha, pre-emergence)
90: Post-emergence action against PHBPU [20]
80: Post-emergence action against VERPE [14] | Post-emergence action against POLCO [19]
100: Post-emergence action against STEME [13] | Post-emergence action against VIOTR ([17]; post-emergence, dosage 80 g/ha)
80%: Pre-emergence action against AVEFA (herbicidal activity) [3] | Post-emergence action against ALOMY [8] | Post-emergence action against AVEFA (herbicidal action in percent) [12] | Post-emergence action against ECHCG (herbicidal action in percent) [16] | Post-emergence action against ABUTH (herbicidal action in percent) [21] | Pre-emergence action against ALOMY (herbicidal activity in percent) [22]

CCn1nnnc1NC(=O)c1ccc(SC)c(C(C)=O)c1Cl [2-121]
90: Post-emergence action against STEME [13] | Post-emergence action against PHBPU [20]
100: Post-emergence action against VERPE [14] | Post-emergence action against VIOTR ([17]; post-emergence, dosage 80 g/ha)
80%: Post-emergence action against CYPES (herbicidal action in percent) [4] | Post-emergence action against ALOMY [8] | Post-emergence action against AVEFA (herbicidal action in percent) [12] | Pre-emergence action against PHBPU [26]
90%: Pre-emergence action against AVEFA (herbicidal activity) [3] | Pre-emergence action against CYPES (herbicidal activity) [5] | SETVI (Table B8, pre-emergence herbicidal activity) [6] | Post-emergence action against SETVI (herbicidal action in percent) [7] | Pre-emergence action against STEME ([18]; Dosage 320 g/ha, pre-emergence) | Pre-emergence action against ALOMY (herbicidal activity in percent) [22]
100%: Pre-emergence action against ECHCG (herbicidal activity) [1, 27] | Post-emergence action against MATIN (herbicidal action in percent) [2, 28] | Pre-emergence action against AMARE (herbicidal activity) [9, 27] | Pre-emergence action against VERPE ([10]; Dosage 320 g/ha, pre-emergence) | Pre-emergence action against ABUTH (herbicidal activity) [11] | Post-emergence action against AMARE (herbicidal action in percent) [24] | Pre-emergence action against VIOTR ([15]; Dosage 320 g/ha, pre-emergence) | Post-emergence action against ECHCG (herbicidal action in percent) [16] | Post-emergence action against ABUTH (herbicidal action in percent) [21] | Pre-emergence action against MATIN ([23]; Dosage 320 g/ha, pre-emergence) | Pre-emergence action against POLCO [25]

CC(=O)c1c(S(C)(=O)=O)ccc(C(=O)Nc2nnnn2C)c1C [1-7]
70: Herbicidal efficacy against ECHCG [1, 29]
90%: pest or weed control at 80 g/ha ([7]; Setaria viridis, 504 h, read-out: Post-emergence action against SETVI (herbicidal action in percent)) | pest or weed control at 80 g/ha ([16]; Echinochloa crus-galli, 504 h, read-out: Post-emergence action against ECHCG (herbicidal action in percent)) | pest or weed control at 320 g/ha ([18]; Stellaria media, 504 h, Dosage 320 g/ha, pre-emergence) | pest or weed control at 80 g/ha ([21]; Abutilon theophrasti, 504 h, read-out: Post-emergence action against ABUTH (herbicidal action in percent))
90: Herbicidal efficacy against STEME [18, 29] | Herbicidal efficacy against MATIN ([23]; Table V5, pre-emergence) | Herbicidal efficacy against MATIN ([23]; Table V8, pre-emergence)
80%: pest or weed control at 80 g/ha ([8]; Alopecurus myosuroides, 504 h) | pest or weed control at 80 g/ha ([12]; Avena fatua, 504 h, read-out: Post-emergence action against AVEFA (herbicidal action in percent)) | pest or weed control at 80 g/ha ([19]; Fallopia convolvulus, 504 h) | pest or weed control at 320 g/ha ([25]; Fallopia convolvulus, 504 h)
100%: pest or weed control at 320 g/ha ([1]; Echinochloa crus-galli, 504 h, pre-emergence, dosage 320 g/ha, scored visually after 3 weeks vs untreated controls, read-out: Pre-emergence action against ECHCG (herbicidal activity)) | pest or weed control at 80 g/ha ([2]; Tripleurospermum inodorum, 504 h, post-emergence, dosage 80 g/ha, visual assessment about 3 weeks after treatment vs untreated controls, read-out: Post-emergence action against MATIN (herbicidal action in percent)) | pest or weed control at 320 g/ha ([5]; Cyperus esculentus, 504 h, read-out: Pre-emergence action against CYPES (herbicidal activity)) | pest or weed control at 320 g/ha ([6]; Setaria viridis, 504 h, read-out: SETVI (Table B8, pre-emergence herbicidal activity)) | pest or weed control at 320 g/ha ([9]; Amaranthus retroflexus, 504 h, pre-emergence, dosage 320 g/ha, scored visually after 3 weeks vs untreated controls, read-out: Pre-emergence action against AMARE (herbicidal activity)) | pest or weed control at 320 g/ha ([10]; Veronica persica, 504 h, Dosage 320 g/ha, pre-emergence) | pest or weed control at 320 g/ha ([11]; Abutilon theophrasti, 504 h, read-out: Pre-emergence action against ABUTH (herbicidal activity)) | pest or weed control at 80 g/ha ([13]; Stellaria media, 504 h) | pest or weed control at 80 g/ha ([24]; Amaranthus retroflexus, 504 h, read-out: Post-emergence action against AMARE (herbicidal action in percent)) | pest or weed control at 80 g/ha ([14]; Veronica persica, 504 h) | pest or weed control at 320 g/ha ([15]; Viola tricolor, 504 h, Dosage 320 g/ha, pre-emergence) | pest or weed control at 80 g/ha ([17]; Viola tricolor, 504 h, post-emergence, dosage 80 g/ha) | pest or weed control at 80 g/ha ([20]; Ipomoea purpurea, 504 h) | pest or weed control at 320 g/ha ([23]; Tripleurospermum inodorum, 504 h, Dosage 320 g/ha, pre-emergence)
100: Herbicidal efficacy against MATIN [2, 30] | Herbicidal efficacy against AMARE [9, 29] | Herbicidal efficacy against VERPE [10, 29] | Herbicidal efficacy against VIOTR ([15]; Table V5, pre-emergence) | Herbicidal efficacy against VIOTR ([15]; Table V8, pre-emergence) | Herbicidal efficacy against VIOTR [17, 30]
